Experimental data: patent publication US6875576B2, “Method for evaluating therapeutic efficacy” (Kosan Biosciences, Inc., priority 2001, dated 2005)

Legend:
[1] = treating gastroesophageal reflux disease; Van Her Waarde et al. 2000; cited from earlier work
[2] = target: T1, C3a receptor (Homo sapiens, UniProt Q16581); test: Ca2+ mobilization via FLIPR; assay type: cell-based
T1 construct: expressed in transfected cells; host or cells: HEK 293, transient transfection, with or without promiscuous G protein Galpha16
T1 sequence (Q16581 1-482): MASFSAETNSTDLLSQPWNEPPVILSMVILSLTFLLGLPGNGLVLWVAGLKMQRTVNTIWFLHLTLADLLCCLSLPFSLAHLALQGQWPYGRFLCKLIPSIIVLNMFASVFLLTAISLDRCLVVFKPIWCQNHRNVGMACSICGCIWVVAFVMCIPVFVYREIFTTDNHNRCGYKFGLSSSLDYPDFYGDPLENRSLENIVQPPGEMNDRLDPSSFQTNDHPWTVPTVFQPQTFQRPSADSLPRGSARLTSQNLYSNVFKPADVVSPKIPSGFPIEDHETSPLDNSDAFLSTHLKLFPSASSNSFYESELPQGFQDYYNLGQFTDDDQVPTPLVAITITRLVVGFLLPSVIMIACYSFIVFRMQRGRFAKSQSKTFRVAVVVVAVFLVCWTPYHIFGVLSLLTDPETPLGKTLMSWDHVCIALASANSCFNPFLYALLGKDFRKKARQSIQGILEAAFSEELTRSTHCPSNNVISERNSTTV
Description: 1. 24 h after receptor transfection harvest and plate cells into poly-D-lysine-coated 96-well black-walled/clear bottom microtiter plates (Becton Dickinson Labware) at 3×10^4 cells per well.
2. After 18 to 24 h aspirate off medium and add 100 μl of fresh EMEM containing 4 μM Fluo-3/AM (Molecular Probes; prepare stock solution at 2 mM in DMSO containing 20% pluronic acid), 0.1% BSA, and […] to each well and incubate for 1 h at 37° C.
3. Aspirate medium and replace with 100 μl of the same medium, but without Fluo-3/AM, and incubate for 10 min at 37° C. Wash cells three times with a Denley cell washer (Labsystems) with Krebs Ringer Henscleit (KRH; 118 mM NaCl, 4.6 mM KCl, […] NaHCO3, 1 mM KH2PO4, 1.1 mM glucose, 1.1 mM MgCl2) containing 0.1% BSA, […], and 20 mM HEPES pH 7.4 (buffer A). After the last wash aspirate down to a final volume of 100 μl.
4. Prepare plates of potential ligands, tissue extracts, or compound libraries in 96-well polypropylene microplates at three times the final concentration in buffer A and warm to 37° C.
5. Place microplates containing Fluo-3 loaded cells and the ligand plates in FLIPR and monitor. At initiation of the fluorescence recording read measurements every 1 s for 60 s and then every 3 s for the following 60 s. […] FLIPR software normalizes fluorescent readings to give equivalent readings for all wells at zero time.

[3] = target: T2, human motilin receptor (Homo sapiens, UniProt O43193); test: Motilin receptor activation assay (aequorin luminescence); assay type: cell-based; conditions: motilin receptor agonism
T2 construct: expressed in transfected cells; host or cells: HEK293 (ATCC CRL-1573), transiently or stably transfected with pkos127-159 and pmtAEQ
Text: A gene encoding the target receptor is cloned and placed into a mammalian expression vector such as pcDNA3.1. The gene may be synthetic or naturally derived. Next, pmtAEQ, an aequorin expression plasmid available from Molecular Probes, and the receptor expression construct are transfected into HEK293 cells using a commercially available transfection kit such as Lipofectamine Plus (Gibco BRL). At this point, a stable cell line may be selected from the transfection mix using common techniques, or the heterologous mixture obtained from transient transfection may be used directly. […] A 100 uL aliquot of cells is added to each well, and following each addition, the integrated luminescence is measured for 30-60 seconds and is taken as the agonist response. Next, 100 uL of 1% triton X-100 in PBS is injected into each well, and the integrated luminescence is measured a second time over 30-60 seconds and is taken as the triton response. A value F is calculated as equaled to the agonist response divided by the sum of the agonist response and the triton response. […]
(§1) Flasks containing HEK293 cells either transiently or stably expressing the motilin receptor and aequorin were used in receptor activation assays. Cells were grown to 80-100% confluence in T175 flasks containing MEMalpha medium with 10% v/v fetal bovine serum, harvested by trypsinization, and counted using a hemocytometer. […]

[4] = target: T2, human motilin receptor; test: Efficacy index: ratio of desensitization value to potency value, motilin receptor and aequorin co-expressed; assay type: cell-based; conditions: ratio of desensitization value (IC50) to potency value (EC50); cells co-expressing motilin receptor and aequorin
Text: In one aspect of the present invention, the comparison of the potency value and the desensitization value is accomplished by calculating a ratio of the desensitization value to the potency value. This ratio is termed the “efficacy index”. […] In other words, because the concentration required for the desired biological response is also the concentration that induces desensitization, the compound is not likely to be therapeutically effective if the desired response is receptor activation. Under these circumstances, the concentration required for the desired biological response should be well below the concentration that induces desensitization. […]
as §1
Stock solutions (20 mM) of test compounds were made in ethanol and diluted 100-fold into PBS. […] One of the injectors was used to add 100 uL of the cell suspension (˜5×10^4 to 10^5) to each well, and the bioluminescence response was measured over the course of 30-60 seconds. […] The F value of the cells to each test compound was calculated using equation 1, and data were fit to equation 2 to obtain EC50 values for the test compounds. […]

[5] = Acid stability; assay type: physicochemical; conditions: stomach environment

T2 sequence (O43193 whole entry): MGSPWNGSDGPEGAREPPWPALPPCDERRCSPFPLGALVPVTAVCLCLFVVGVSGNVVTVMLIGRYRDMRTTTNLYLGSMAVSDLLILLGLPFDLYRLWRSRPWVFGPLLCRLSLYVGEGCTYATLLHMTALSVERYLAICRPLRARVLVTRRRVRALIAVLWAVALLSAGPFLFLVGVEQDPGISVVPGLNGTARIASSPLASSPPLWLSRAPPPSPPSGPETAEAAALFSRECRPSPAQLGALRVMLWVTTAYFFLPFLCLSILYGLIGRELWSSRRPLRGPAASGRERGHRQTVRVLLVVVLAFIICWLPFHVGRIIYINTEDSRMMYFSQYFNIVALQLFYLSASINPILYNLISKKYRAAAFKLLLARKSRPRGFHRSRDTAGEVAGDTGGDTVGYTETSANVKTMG

Molecule: CC[C@H]1OC(=O)[C@H](C)[C@@H](OC2C[C@@](C)(OC)C[C@H](C)O2)[C@H](C)[C@@H](OC2O[C@H](C)C[C@H](N(C)CC)[C@H]2O)[C@]2(C)CC(C)=C(O2)[C@H](C)[C@@H](O)[C@H]1C (stereo partly drawn) [ABT-229]
- clinical efficacy [1]: lack of efficacy

Molecule: C3a: ligand of the C3a receptor
- Ca2+ mobilization response ([2]; C3a receptor co-expressed with Gα16 in HEK 293 cells): robust responses
- Ca2+ mobilization response ([2]; C3a receptor expressed alone in HEK 293 cells): weak or no Ca^2+ mobilization responses

Molecule: CC[C@H]1OC(=O)[C@H](C)[C@@H](OC2C[C@@](C)(OC)[C@@H](O)[C@H](C)O2)[C@H](C)[C@@H](OC2O[C@H](C)C[C@H](N(C)C)[C@H]2O)[C@]2(C)CC(C)=C(O2)[C@H](C)[C@@H](O)[C@]1(C)O (stereo partly drawn) [erythromycin 6,9-enol ether]
- potency (EC50) [3]: nanomolar range
- efficacy index [4]: greater than 20,000
- stability in acid [5]: unstable in acid
